In US12503473B2, “Triazolopyrimidine compounds and their use in treating cancer” (Dizal (Jiangsu) Pharmaceutical Co., Ltd., priority 2018, dated 2025):

Tests used:
MCT1 = biological target: T1, MCT1 (Homo sapiens, UniProt P53985); test: Assay (c): FLIPR BCECF lactate influx in K562 cells; type: cell-based; details: mean of at least three repeats, read-out: MCT1 FLIPR pIC50 (K562) (converted)
T1 construct: a human erythroleukemia line predominantly expressing MCT1, a small amount of MCT2 and no MCT4; host or cells: K562
T1 sequence (P53985 1-500): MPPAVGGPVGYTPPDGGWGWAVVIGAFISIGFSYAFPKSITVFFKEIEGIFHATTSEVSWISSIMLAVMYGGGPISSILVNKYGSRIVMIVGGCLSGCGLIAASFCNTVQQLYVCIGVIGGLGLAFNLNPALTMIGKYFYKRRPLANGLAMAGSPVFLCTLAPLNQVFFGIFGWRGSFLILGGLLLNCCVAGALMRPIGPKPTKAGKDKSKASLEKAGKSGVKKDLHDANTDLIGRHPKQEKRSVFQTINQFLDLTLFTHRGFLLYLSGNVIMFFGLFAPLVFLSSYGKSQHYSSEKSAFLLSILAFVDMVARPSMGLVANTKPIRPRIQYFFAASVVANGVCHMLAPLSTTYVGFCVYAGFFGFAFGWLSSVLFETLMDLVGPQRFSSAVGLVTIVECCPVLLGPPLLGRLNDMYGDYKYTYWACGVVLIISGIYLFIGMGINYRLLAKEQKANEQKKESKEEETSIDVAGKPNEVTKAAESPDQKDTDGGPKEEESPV
Protocol: Cells were loaded with the pH sensitive dye BCECFAM(Invitrogen #B11150) before being washed to remove excess dye and seeded into the assay plates—directly onto the test compound—at a density of 15,000 cells/well (NCI—H358) or 30,000 cells/well (K562), in 30 μl HBSS with 1 mM [final] […] Assay plates were lidded and spun in a plate centrifuge at 170 g for 1 minute. Plates were then wrapped in foil and incubated in the dark for 1 hour at room temperature.
Following incubation with test compound, 10 μl of 25 mM Sodium-L-Lactate (Sigma #L7022) made up in HBSS with 1 mM [final] […] This addition was performed directly on the FLIPR Tetra platform (Molecular Devices) as part of a real-time kinetic read protocol. […] A percentage change from base-line was calculated for each test well and values normalised to control wells—treated with either DMSO (maximum assay signal) or chemistry related to that described in this patent (minimum assay signal)—before fitting concentration response curves to determine an IC50 value.

MCT4 [1] = biological target: T2, MCT4 (Homo sapiens, UniProt O15427); test: cell-based
T2 sequence (O15427 1-465): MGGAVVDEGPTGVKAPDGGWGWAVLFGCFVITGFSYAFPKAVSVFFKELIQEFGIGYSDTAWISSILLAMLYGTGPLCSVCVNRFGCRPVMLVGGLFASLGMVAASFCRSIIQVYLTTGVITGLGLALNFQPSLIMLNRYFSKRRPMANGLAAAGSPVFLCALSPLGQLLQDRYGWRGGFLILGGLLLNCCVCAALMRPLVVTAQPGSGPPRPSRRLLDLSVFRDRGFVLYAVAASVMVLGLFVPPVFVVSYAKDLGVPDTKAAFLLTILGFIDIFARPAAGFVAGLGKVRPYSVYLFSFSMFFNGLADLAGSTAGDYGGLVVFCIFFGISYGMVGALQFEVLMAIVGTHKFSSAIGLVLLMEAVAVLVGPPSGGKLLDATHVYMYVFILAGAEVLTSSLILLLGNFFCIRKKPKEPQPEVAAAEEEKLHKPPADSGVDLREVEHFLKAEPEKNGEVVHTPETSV

MCT4 [2] = biological target: T2, MCT4; test: Assay (a): lactate efflux from SK-Br-3 cells (lactate in media, 4 h); type: cell-based; design: a natively glycolytic human breast adenocarcinoma line predominantly expressing MCT4; host or cells: SK-Br-3; details: mean of at least three repeats (Example 32, marked *, two repeats), read-out: MCT4 lactate efflux pIC50 (SKBR3) (converted)
Protocol: Assay plates were lidded and incubated for 4 hours at 37° C. and 5% CO2.

SMILES | IC50 (MCT1) | IC50 (MCT4 [1]) | IC50 (MCT4 [2])
Cc1nc2nc(C)c(C[C@@H]3CCN(c4cnc(-c5ccc(CN6CCN(C)C[C@H]6C)cc5)cn4)C3)c(C)n2n1 [Example 34, 6-(((R)-1-(5-(4-(((R)-2,4-dimethylpiperazin-1-yl)methyl)phenyl)pyrazin-2-yl)pyrrolidin-3-yl)methyl)-2,5,7-trimethyl-[1,2,4]triazolo[1,5-a]pyrimidine] | > 25100 nM | 63.1 nM | 1.58 nM
Cc1nc2nc(C)c(C[C@@H]3CCN(c4cnc(-c5ccc(CN6C[C@@H](C)N(C)C[C@H]6C)cc5)cn4)C3)c(C)n2n1 [Example 35, 2,5,7-trimethyl-6-(((R)-1-(5-(4-(((2R,5R)-2,4,5-trimethylpiperazin-1-yl)methyl)phenyl)pyrazin-2-yl)pyrrolidin-3-yl)methyl)-[1,2,4]triazolo[1,5-a]pyrimidine] | > 25100 nM | 15.8 nM | 0.631 nM
Cc1nc2nc(C)c(C[C@@H]3CCN(c4cnc(-c5ccc(CN6CCN(C)C[C@@H]6C)cc5)cn4)C3)c(C)n2n1 [Example 50, 6-(((R)-1-(5-(4-(((S)-2,4-dimethylpiperazin-1-yl)methyl)phenyl)pyrazin-2-yl)pyrrolidin-3-yl)methyl)-2,5,7-trimethyl-[1,2,4]triazolo[1,5-a]pyrimidine] | > 25100 nM | 15.8 nM | 0.501 nM
Cc1nc2nc(C)c(C[C@@H]3CCN(c4cnc(-c5ccc(CN6C[C@@H](C)N(C)C[C@@H]6C)cc5)cn4)C3)c(C)n2n1 [Example 36, 2,5,7-trimethyl-6-(((R)-1-(5-(4-(((2S,5R)-2,4,5-trimethylpiperazin-1-yl)methyl)phenyl)pyrazin-2-yl)pyrrolidin-3-yl)methyl)-[1,2,4]triazolo[1,5-a]pyrimidine] | > 25100 nM |  | 0.501 nM
Cc1nc2nc(C)c(C[C@@H]3CCN(c4cnc(-c5ccc(CN6C[C@@H](C)N[C@@H](C)C6)cc5)cn4)C3)c(C)n2n1 [Example 40, 6-(((R)-1-(5-(4-(((3R,5S)-3,5-dimethylpiperazin-1-yl)methyl)phenyl)pyrazin-2-yl)pyrrolidin-3-yl)methyl)-2,5,7-trimethyl-[1,2,4]triazolo[1,5-a]pyrimidine] |  | 63.1 nM | 1.26 nM
Cc1nc2nc(C)c(C[C@@H]3CCN(c4ncc(-c5ccc(CN6CCOCC6)cc5)cn4)C3)c(C)n2n1 [Example 6, (R)-4-(4-(2-(3-((2,5,7-trimethyl-[1,2,4]triazolo[1,5-a]pyrimidin-6-yl)methyl)pyrrolidin-1-yl)pyrimidin-5-yl)benzyl)morpholine] |  | 7.94 nM | 0.631 nM
Cc1nc2nc(C)c(C[C@@H]3CCN(c4cnc(-c5ccc(CN6CCN(C)[C@@H](C)C6)cc5)cn4)C3)c(C)n2n1 [Example 48, 6-(((R)-1-(5-(4-(((S)-3,4-dimethylpiperazin-1-yl)methyl)phenyl)pyrazin-2-yl)pyrrolidin-3-yl)methyl)-2,5,7-trimethyl-[1,2,4]triazolo[1,5-a]pyrimidine] |  | 10 nM | 1.58 nM
COc1cc(CN2CCN(C)CC2)ccc1-c1cnc(N2CC[C@@H](Cc3c(C)nc4nc(C)nn4c3C)C2)cn1 [Example 43, (R)-6-((1-(5-(2-methoxy-4-((4-methylpiperazin-1-yl)methyl)phenyl)pyrazin-2-yl)pyrrolidin-3-yl)methyl)-2,5,7-trimethyl-[1,2,4]triazolo[1,5-a]pyrimidine] |  | 20 nM | 0.631 nM

The next lines start with the values.

IC50 (MCT1) | IC50 (MCT4 [1]) | IC50 (MCT4 [2]) | SMILES
> 25100 nM |  |  | CC(=O)N1CCN(Cc2ccc(-c3ccc(N4CC[C@@H](Oc5c(C)nc6nc(C)nn6c5C)C4)cc3)nn2)CC1 [Example 71, (R)-1-(4-((6-(4-(3-((2,5,7-trimethyl-[1,2,4]triazolo[1,5-a]pyrimidin-6-yl)oxy)pyrrolidin-1-yl)phenyl)pyridazin-3-yl)methyl)piperazin-1-yl)ethan-1-one]
> 25100 nM | 79.4 nM | 2.51 nM | CCN1CCN(Cc2ccc(-c3ccc(N4CC[C@@H](Oc5c(C)nc6nc(C)nn6c5C)C4)cc3)nn2)CC1 [Example 72, (R)-6-((1-(4-(6-((4-ethylpiperazin-1-yl)methyl)pyridazin-3-yl)phenyl)pyrrolidin-3-yl)oxy)-2,5,7-trimethyl-[1,2,4]triazolo[1,5-a]pyrimidine]
> 25100 nM | 12.6 nM | 0.631 nM | CC(=O)N1CCN(Cc2ccc(-c3cnc(N4CC[C@@H](Cc5c(C)nc6nc(C)nn6c5C)C4)cn3)cc2)CC1 [Example 58, (R)-1-(4-(4-(5-(3-((2,5,7-trimethyl-[1,2,4]triazolo[1,5-a]pyrimidin-6-yl)methyl)pyrrolidin-1-yl)pyrazin-2-yl)benzyl)piperazin-1-yl)ethanone]
> 20000 nM | 15.8 nM | 0.501 nM | Cc1nc2nc(C)c(C[C@@H]3CCN(c4ccc(-c5ccc(CN6CCOCC6)nn5)nc4)C3)c(C)n2n1 [Example 9, (R)-4-((6-(5-(3-((2,5,7-trimethyl-[1,2,4]triazolo[1,5-a]pyrimidin-6-yl)methyl)pyrrolidin-1-yl)pyridin-2-yl)pyridazin-3-yl)methyl)morpholine]
> 25100 nM |  |  | Cc1nc2nc(C)c(O[C@@H]3CCN(c4ccc(-c5ccc(CN6CCN(C)CC6)nn5)cc4)C3)c(C)n2n1 [Example 65, (R)-2,5,7-trimethyl-6-((1-(4-(6-((4-methylpiperazin-1-yl)methyl)pyridazin-3-yl)phenyl)pyrrolidin-3-yl)oxy)-[1,2,4]triazolo[1,5-a]pyrimidine]
> 25100 nM |  | 0.794 nM | Cc1nc2nc(C)c(C[C@@H]3CCN(c4cnc(-c5ccc(CN6CCN(CCO)CC6)cc5)cn4)C3)c(C)n2n1 [Example 41, 2-{4-[4-(5-{(3R)-3-[(2,5,7-trimethyl[1,2,4]triazolo[1,5-a]pyrimidin-6-yl)methyl]pyrrolidin-1-yl}pyrazin-2-yl)benzyl]piperazin-1-yl}ethanol]
> 25100 nM |  | 2 nM | Cc1nc2nc(C)c(O[C@@H]3CCN(c4cnc(-c5ccc(CN6CCN(C)CC6)cc5)nc4)C3)c(C)n2n1 [Example 76, (R)-2,5,7-trimethyl-6-((1-(2-(4-((4-methylpiperazin-1-yl)methyl)phenyl)pyrimidin-5-yl)pyrrolidin-3-yl)oxy)-[1,2,4]triazolo[1,5-a]pyrimidine]
> 25100 nM |  |  | Cc1nc2nc(C)c(C[C@@H]3CCN(c4cnc(-c5ccc(CN6CCN(C)CC6)cc5)cn4)C3)c(C)n2n1 [Example 59, (R)-2,5,7-trimethyl-6-((1-(5-(4-((4-methylpiperazin-1-yl)methyl)phenyl)pyrazin-2-yl)pyrrolidin-3-yl)methyl)-[1,2,4]triazolo[1,5-a]pyrimidine]
> 15800 nM |  |  | Cc1nc2nc(C)c(C[C@@H]3CCN(c4ccc(-c5ccc(CN6CCOCC6)nn5)cc4)C3)c(C)n2n1 [Example 29, (R)-4-((6-(4-(3-((2,5,7-trimethyl-[1,2,4]triazolo[1,5-a]pyrimidin-6-yl)methyl)pyrrolidin-1-yl)phenyl)pyridazin-3-yl)methyl)morpholine]
 | 6.31 nM | 0.398 nM | Cc1nc2nc(C)c(C[C@@H]3CCN(c4cnc(-c5ccc(CN6CCCCC6)cc5)cn4)C3)c(C)n2n1 [Example 37, 2,5,7-trimethyl-6-[[(3R)-1-[5-[4-(1-piperidylmethyl)phenyl]pyrazin-2-yl]pyrrolidin-3-yl]methyl]-[1,2,4]triazolo[1,5-a]pyrimidine]
 | 31.6 nM | 0.501 nM | Cc1nc2nc(C)c(C[C@@H]3CCN(c4cnc(-c5ccc(CN6CCN(CCO)CC6)cc5)nc4)C3)c(C)n2n1 [Example 16, (R)-2-(4-(4-(5-(3-((2,5,7-trimethyl-[1,2,4]triazolo[1,5-a]pyrimidin-6-yl)methyl)pyrrolidin-1-yl)pyrimidin-2-yl)benzyl)piperazin-1-yl)ethanol]
 | 25.1 nM | 0.631 nM | Cc1nc2nc(C)c(C[C@@H]3CCN(c4ccc(-c5ccc(CN6CCN(C)CC6)cc5)nc4)C3)c(C)n2n1 [Example 8, (R)-2,5,7-trimethyl-6-((1-(6-(4-((4-methylpiperazin-1-yl)methyl)phenyl)pyridin-3-yl)pyrrolidin-3-yl)methyl)-[1,2,4]triazolo[1,5-a]pyrimidine]
